Broadly, the IC50 is the midpoint of a concentration-inhibition curve.

A short description of the assay: Compound was tested for the inhibition of IL1-beta and interleukin-6-production. It is filed as functional.

`Nc1ncnc2c1ncn2[C@@H]1CC[C@@H](O)C1` had a half-maximal inhibitory concentration (IC50) of 9 µM.

The record behind these values is ChEMBL document CHEMBL1132161, “Therapeutic potential and strategies for inhibiting tumor necrosis factor-alpha” (J Med Chem, 1999).
